# Reference: paper PMC12016938, “A small molecule PKCε inhibitor reduces hyperalgesia induced by paclitaxel or opioid withdrawal” (JCI Insight, 2025)
# Where “and” joins values, the source holds several entries; their conditions need not be identical. Equal values may be shown once.
# Experiments:
# [1] = molecular target: T1, PRKG2 (Protein Kinase CGMP-Dependent 2) (Homo sapiens, UniProt Q13237); experiment: scanMax kinome panel, PRKG2; type: binding; conditions: 200 nM CP612
# T1 construct: purchased Eurofins-DiscoverX
# Experimental: CP612 was screened for kinome specificity at 200 nM against 468 kinases using the scanMax assay panel from Eurofins-DiscoverX. CP612 inhibited 10 other WT kinases besides PKCε, all to < 10% of control: CLK1 (CDC Like Kinase 1), CLK4, PKN1 (Protein kinase N1), PKN2, PKCδ, PKCη, PKCθ, PRKG2 (Protein Kinase CGMP-Dependent 2), ROCK1, and ROCK2.
# in vitro = conditions: human, microsomes; for half-life at 8.5 μM: both
# Experimental: Microsomal clearance. To determine if CP612 was a likely substrate for first-pass hepatic metabolism, we measured the stability of CP612 in the presence of human liver microsomes (BioIVT) pooled from over 100 male and female individuals. […] Test compounds were diluted to 10 μM in 0.1M PBS, and then 51 μL were dispensed in quadruplicate into wells of a 96-well plate, which was shaken at 600 rpm at 37°C. Reactions were initiated by adding 1.5 μL of microsomes (20 mg/mL) to the wells and 3 minutes later adding 7.5 μL of 8 mM NADPH (1 mM final concentration). Samples incubated without NADPH were used as negative controls.
# PKCε = molecular target: T2, PKCε (Homo sapiens, UniProt Q02156); experiment: PKCε activity with increasing ATP and CP612 (ATP competition); type: biochemical; design: His; AVI; made in house; host or cells: Sf9 cells; conditions: for Kinase activity (% control): PKCε, log [CP612]
# T2 sequence (Q02156 1-737): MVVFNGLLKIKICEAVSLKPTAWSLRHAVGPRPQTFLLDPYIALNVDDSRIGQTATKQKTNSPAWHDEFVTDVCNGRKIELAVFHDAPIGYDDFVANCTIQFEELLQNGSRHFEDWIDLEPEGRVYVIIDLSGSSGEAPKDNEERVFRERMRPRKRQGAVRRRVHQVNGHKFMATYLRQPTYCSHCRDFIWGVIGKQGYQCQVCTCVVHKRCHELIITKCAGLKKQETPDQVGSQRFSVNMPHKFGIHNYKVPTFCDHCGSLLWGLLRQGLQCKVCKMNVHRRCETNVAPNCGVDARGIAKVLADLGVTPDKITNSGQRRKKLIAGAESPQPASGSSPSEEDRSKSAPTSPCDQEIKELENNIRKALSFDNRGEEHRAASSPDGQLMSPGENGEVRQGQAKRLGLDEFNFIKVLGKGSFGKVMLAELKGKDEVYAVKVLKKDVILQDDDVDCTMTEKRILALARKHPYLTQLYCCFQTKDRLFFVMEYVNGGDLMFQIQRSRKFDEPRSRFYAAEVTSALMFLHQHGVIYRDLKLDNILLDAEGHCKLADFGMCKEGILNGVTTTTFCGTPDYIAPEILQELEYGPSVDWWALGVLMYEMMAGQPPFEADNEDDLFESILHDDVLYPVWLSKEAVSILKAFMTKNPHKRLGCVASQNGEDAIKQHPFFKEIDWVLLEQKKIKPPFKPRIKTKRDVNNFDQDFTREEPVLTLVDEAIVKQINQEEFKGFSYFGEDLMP
# Experimental: Therefore, we assayed PKCε activity with increasing concentrations of ATP and in the presence of increasing concentrations of CP612.
# Kinase assays. CP612 was assayed against His-AVI–tagged human PKCε (1 nM) produced in Sf9 cells, and ROCK1 (Carna Biosciences; 5 nM) using the Lance-FRET kinase assay system (PerkinElmer Revvity). Other human recombinant PKCs (SignalChem Biotech) were assayed in triplicate at the following concentrations: PKCβII 1.6 nM, PKCγ 500 pM, PKCδ 5 nM, PKCθ 500 pM, and PKCζ 500 pM. PKCs were incubated in a 15 μL reaction volume with kinase buffer (20 mM Tris-HCL [pH 7.4], 10 mM MgCl2, 0.25 mM EGTA, 0.1 mg/mL BSA, and 0.15% Triton X-100), 50 nM ULight-labeled CREBtide […] (PerkinElmer, TRF0107, Revvity), and test compound. […] after 60 minutes with 10 μL of 2.5× Stop Solution/Detection Mix containing 20 mM EDTA and 4 nM LANCE Ultra Europium anti–phospho-[…] peptide antibody (PerkinElmer, TRF0200, Revvity). After incubation at 27°C for another 60 minutes, phosphorylation was detected using a FlexStation 3 Microplate Reader (Molecular Devices) in LANCE TR-FRET mode (excitation = 340 nm, emission = 665 nm) and expressed as relative fluorescence units (RFU). The percentage of inhibition was calculated as: (signal without test compound − signal with test compound)/(signal without test compound − signal without ATP) × 100. The Z’ factor for this assay ranged between 0.72 and 0.86.
# [2] = test system: hyperalgesia induced by morphine withdrawal; experiment: Reversal of hyperalgesia due to morphine withdrawal, von Frey SUDO; type: in vivo, C57BL/6J mice
# Text: We next tested if CP612 reverses hyperalgesia induced by withdrawal from repeated administration of morphine in male and female C57BL/6J mice. Since the pain thresholds of mice receiving repeated administration of saline were not affected by treatment with vehicle or CP612 injection (Figure 6), mice in this experiment were only treated with morphine. […] Both male and female mice that received vehicle continued to show hyperalgesia up to 4 weeks after the last injection of morphine.
# T1 sequence (Q13237 whole entry): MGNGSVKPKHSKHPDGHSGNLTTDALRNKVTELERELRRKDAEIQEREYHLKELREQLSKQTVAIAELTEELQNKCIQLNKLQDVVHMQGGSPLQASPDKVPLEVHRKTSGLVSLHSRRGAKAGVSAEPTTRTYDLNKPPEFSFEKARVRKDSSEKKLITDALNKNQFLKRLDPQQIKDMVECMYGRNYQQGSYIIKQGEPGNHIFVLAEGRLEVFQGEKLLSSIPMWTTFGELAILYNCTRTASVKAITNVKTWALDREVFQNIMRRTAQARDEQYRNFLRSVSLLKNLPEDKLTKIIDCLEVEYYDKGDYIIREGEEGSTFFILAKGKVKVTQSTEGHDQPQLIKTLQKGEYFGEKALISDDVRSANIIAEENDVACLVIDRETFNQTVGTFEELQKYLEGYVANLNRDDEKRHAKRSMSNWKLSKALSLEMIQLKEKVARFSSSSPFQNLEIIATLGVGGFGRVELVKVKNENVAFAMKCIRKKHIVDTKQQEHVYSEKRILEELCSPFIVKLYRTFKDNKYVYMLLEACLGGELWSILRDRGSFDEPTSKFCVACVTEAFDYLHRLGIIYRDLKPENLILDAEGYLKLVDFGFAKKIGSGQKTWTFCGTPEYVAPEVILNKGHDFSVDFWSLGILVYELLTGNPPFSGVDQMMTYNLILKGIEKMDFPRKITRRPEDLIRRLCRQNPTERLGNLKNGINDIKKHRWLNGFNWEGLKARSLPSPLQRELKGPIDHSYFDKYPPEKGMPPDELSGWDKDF
compound,measurement,setting,value
N[C@H](CNC(=O)C1(c2ccc(Cl)cc2)CCCC1)c1ccc(C(=O)Nc2ccncc2)cc1 [CP612],"scanMax % of control, PRKG2",[1],< 10 % of control
same,half-life at 8.5 μM,in vitro; Microsomal clearance t½ (min),10.5 ± 1.31 h
same,half-life at 8.5 μM,in vitro; t1/2 (half life),10.8 h
same,half-life at 8.5 μM,"in vitro; t1/2 (half life), Mean",10.5 h
same,"CLint (clearance), Mean",in vitro,2.23
same,Microsomal clearance (in words),in vitro,low
same,Microsomal clearance Cl,in vitro,2.23 ± 0.29 µL/min
same,Increase of EC50 for ATP,PKCε; 300 nM CP612,40 fold
same,Kinase activity (% control),"PKCε; [ATP] 0.183 µM, M -8.523, 0.183 µM",47.534 % control and 24.462 % control and 35.552 % control
same,Kinase activity (% control),"PKCε; [ATP] 0.73 µM, M -6, 0.73 µM",0.864 % control and 1.238 % control
same,Kinase activity (% control),"PKCε; [ATP] 2.93 µM, M -5.523, 2.93 µM",0.280 % control and 0.321 % control
same,Kinase activity (% control),"PKCε; [ATP] 2.93 µM, M -6, 2.93 µM",1.498 % control and 2.443 % control
same,Kinase activity (% control),"PKCε; [ATP] 2.93 µM, M -6.523, 2.93 µM",4.077 % control and 4.559 % control
same,Kinase activity (% control),"PKCε; [ATP] 2.93 µM, M -7, 2.93 µM",8.910 % control and 10.659 % control
same,Kinase activity (% control),"PKCε; [ATP] 2.93 µM, M -7.523, 2.93 µM",20.262 % control and 21.135 % control
same,Kinase activity (% control),"PKCε; [ATP] 2.93 µM, M -8, 2.93 µM",38.517 % control and 38.535 % control
same,Kinase activity (% control),"PKCε; [ATP] 2.93 µM, M -8.523, 2.93 µM",63.294 % control and 62.615 % control
same,Kinase activity (% control),"PKCε; [ATP] 11.67 µM, M -6, 11.67 µM",4.132 % control and 3.783 % control
same,Kinase activity (% control),"PKCε; [ATP] 11.67 µM, M -6.523, 11.67 µM",10.586 % control and 9.278 % control
same,Kinase activity (% control),"PKCε; [ATP] 11.67 µM, M -7, 11.67 µM",20.490 % control and 19.346 % control
same,Kinase activity (% control),"PKCε; [ATP] 11.67 µM, M -7.523, 11.67 µM",38.625 % control and 36.759 % control
same,Kinase activity (% control),"PKCε; [ATP] 11.67 µM, M -8, 11.67 µM",63.930 % control and 57.174 % control
same,Kinase activity (% control),"PKCε; [ATP] 11.67 µM, M -8.523, 11.67 µM",75.246 % control and 100.913 % control and 75.385 % control
same,Kinase activity (% control),"PKCε; [ATP] 49 µM, M -6, 49 µM",10.798 % control and 9.001 % control
same,Kinase activity (% control),"PKCε; [ATP] 49 µM, M -6.523, 49 µM",25.250 % control and 20.067 % control
same,Kinase activity (% control),"PKCε; [ATP] 49 µM, M -7, 49 µM",46.048 % control and 35.068 % control
same,Kinase activity (% control),"PKCε; [ATP] 49 µM, M -7.523, 49 µM",52.594 % control and 73.832 % control and 56.661 % control
same,Kinase activity (% control),"PKCε; [ATP] 49 µM, M -8, 49 µM",73.818 % control and 104.476 % control and 73.273 % control
same,Kinase activity (% control),"PKCε; [ATP] 49 µM, M -8.523, 49 µM",102.193 % control and 87.045 % control
same,Kinase activity (% control),"PKCε; [ATP] 187 µM, M -6, 187 µM",22.653 % control and 20.507 % control
same,Kinase activity (% control),"PKCε; [ATP] 187 µM, M -6.523, 187 µM",46.882 % control and 37.693 % control
same,Kinase activity (% control),"PKCε; [ATP] 187 µM, M -7, 187 µM",75.602 % control and 55.920 % control
same,Kinase activity (% control),"PKCε; [ATP] 187 µM, M -7.523, 187 µM",95.087 % control and 100.001 % control and 71.937 % control
same,Kinase activity (% control),"PKCε; [ATP] 187 µM, M -8, 187 µM",104.191 % control and 87.275 % control
same,Kinase activity (% control),"PKCε; [ATP] 187 µM, M -8.523, 187 µM",106.161 % control and 97.914 % control
same,Kinase activity (% control),"PKCε; [ATP] 750 µM, M -5.523, 750 µM",21.316 % control and 15.871 % control
same,Kinase activity (% control),"PKCε; [ATP] 750 µM, M -6, 750 µM",49.150 % control and 51.871 % control
same,Kinase activity (% control),"PKCε; [ATP] 750 µM, M -6.523, 750 µM",85.111 % control and 100.290 % control and 67.168 % control
same,Kinase activity (% control),"PKCε; [ATP] 750 µM, M -7, 750 µM",106.868 % control and 86.984 % control
same,Kinase activity (% control),"PKCε; [ATP] 750 µM, M -7.523, 750 µM",104.196 % control and 100.982 % control
same,Kinase activity (% control),"PKCε; [ATP] 750 µM, M -8, 750 µM",105.985 % control and 104.633 % control
same,Kinase activity (% control),"PKCε; [ATP] 750 µM, M -8.523, 750 µM",106.157 % control and 106.288 % control
same,Mode of inhibition of PKCε,PKCε; rightward shift at higher [ATP],competing with ATP
same,Effect on established morphine-withdrawal hyperalgesia,"[2]; male and female mice, CP612 20 mg/kg i.p. 2 weeks after last morphine injection",reversed
same,Duration of reversal of hyperalgesia,[2]; single dose CP612 20 mg/kg i.p.,2 weeks
